From the NIST ThermoML archive (doi:10.1021/je060368x)
Numbers after ± are expanded uncertainties.

Key:
[1] = excess molar enthalpy (molar enthalpy of mixing); xn = mol fraction of the nth substance listed; conditions: 298.15 K, 101 kPa, Liquid, Flow calorimetry
[2] = xn = mol fraction of the nth substance listed; conditions: 298.15 K, 101 kPa, Liquid
[3] = heat capacity at constant pressure per volume; conditions: 298.15 K; 101.33 kPa; Liquid
[4] = heat capacity at constant pressure per volume; xn = mol fraction of the nth substance listed; conditions: 298.15 K, 101 kPa, Liquid

CCCCCCCCCCO [decan-1-ol] + C1CCCCC1
[1]
Conditions | excess molar enthalpy [kcal/mol]
x2 = 0.164 | 0.0694 ± 0.0011
x2 = 0.306 | 0.118 ± 0.00179
x2 = 0.431 | 0.148 ± 0.00208
x2 = 0.541 | 0.163 ± 0.00215
x2 = 0.638 | 0.166 ± 0.00215
x2 = 0.726 | 0.159 ± 0.00225
x2 = 0.805 | 0.144 ± 0.00263
x2 = 0.876 | 0.122 ± 0.00382
x2 = 0.941 | 0.0902 ± 0.00478

CCCCCCCCCCO [decan-1-ol] + C1CCOCC1
Conditions | excess molar enthalpy [kcal/mol] | mass density [kg/m3]
[1], x2 = 0.179 | 0.14 ± 0.0021 | –
[1], x2 = 0.329 | 0.229 ± 0.00335 | –
[1], x2 = 0.456 | 0.27 ± 0.00359 | –
[1], x2 = 0.566 | 0.282 ± 0.00359 | –
[1], x2 = 0.662 | 0.271 ± 0.00359 | –
[1], x2 = 0.746 | 0.243 ± 0.00454 | –
[1], x2 = 0.82 | 0.198 ± 0.00645 | –
[1], x2 = 0.887 | 0.142 ± 0.00884 | –
[1], x2 = 0.946 | 0.075 ± 0.0108 | –
[2], x2 = 0.1017 | – | 828.6 ± 0.68
[2], x2 = 0.2006 | – | 831.38 ± 0.68
[2], x2 = 0.2971 | – | 834.48 ± 0.67
[2], x2 = 0.3995 | – | 838.2 ± 0.67
[2], x2 = 0.4943 | – | 842.21 ± 0.66
[2], x2 = 0.5984 | – | 847.35 ± 0.65
[2], x2 = 0.6979 | – | 853.12 ± 0.64
[2], x2 = 0.8001 | – | 860.13 ± 0.63
[2], x2 = 0.9009 | – | 868.56 ± 0.62

CCCCCCCO [heptan-1-ol] + C1CCCCC1
[1]
Conditions | excess molar enthalpy [kcal/mol]
x2 = 0.127 | 0.0456 ± 0.000813
x2 = 0.246 | 0.0867 ± 0.00141
x2 = 0.359 | 0.119 ± 0.00179
x2 = 0.466 | 0.142
x2 = 0.567 | 0.154 ± 0.00203
x2 = 0.662 | 0.155 ± 0.00203
x2 = 0.753 | 0.145 ± 0.00225
x2 = 0.839 | 0.126 ± 0.00287
x2 = 0.922 | 0.0956 ± 0.00359

CCCCCCCO [heptan-1-ol] + C1CCOCC1
[2]
Conditions | mass density [kg/m3]
x2 = 0.0514 | 820.57 ± 1.2
x2 = 0.1047 | 822.8 ± 1.1
x2 = 0.1988 | 826.97 ± 1.1
x2 = 0.2987 | 831.67 ± 1
x2 = 0.4018 | 836.94 ± 0.95
x2 = 0.4976 | 842.18 ± 0.89
x2 = 0.6005 | 848.37 ± 0.83
x2 = 0.6985 | 854.74 ± 0.77
x2 = 0.8002 | 861.99 ± 0.71
x2 = 0.8989 | 869.83 ± 0.66
x2 = 0.9487 | 874.13 ± 0.63

CCCCCCCCCO [nonan-1-ol] + C1CCCCC1
[1]
Conditions | excess molar enthalpy [kcal/mol]
x2 = 0.152 | 0.0608 ± 0.001
x2 = 0.287 | 0.107 ± 0.00165
x2 = 0.409 | 0.138 ± 0.00198
x2 = 0.518 | 0.156 ± 0.0021
x2 = 0.617 | 0.161 ± 0.00208
x2 = 0.707 | 0.157 ± 0.00215
x2 = 0.79 | 0.143 ± 0.00263
x2 = 0.866 | 0.12 ± 0.00359
x2 = 0.936 | 0.089 ± 0.0043

CCCCCCCCCO [nonan-1-ol] + C1CCOCC1
Conditions | excess molar enthalpy [kcal/mol] | mass density [kg/m3]
[1], x2 = 0.166 | 0.13 ± 0.00194 | –
[1], x2 = 0.309 | 0.211 ± 0.00311 | –
[1], x2 = 0.434 | 0.254 ± 0.00335 | –
[1], x2 = 0.544 | 0.27 ± 0.00335 | –
[1], x2 = 0.641 | 0.263 ± 0.00359 | –
[1], x2 = 0.729 | 0.238 ± 0.00406 | –
[1], x2 = 0.807 | 0.197 ± 0.00574 | –
[1], x2 = 0.877 | 0.143 ± 0.00813 | –
[1], x2 = 0.942 | 0.0767 ± 0.00956 | –
[2], x2 = 0.0965 | – | 826.81 ± 1.1
[2], x2 = 0.1998 | – | 830.22 ± 1.1
[2], x2 = 0.2989 | – | 833.75 ± 1
[2], x2 = 0.3822 | – | 837.11 ± 0.96
[2], x2 = 0.497 | – | 842.35 ± 0.89
[2], x2 = 0.5969 | – | 847.63 ± 0.83
[2], x2 = 0.6983 | – | 853.74 ± 0.77
[2], x2 = 0.8 | – | 860.8 ± 0.72
[2], x2 = 0.9002 | – | 869.06 ± 0.66

CCCCCO [pentan-1-ol] + C1CCCCC1
[1]
Conditions | excess molar enthalpy [kcal/mol]
x2 = 0.1 | 0.0357 ± 0.000645
x2 = 0.2 | 0.0692 ± 0.00115
x2 = 0.3 | 0.0977 ± 0.00155
x2 = 0.4 | 0.125 ± 0.00186
x2 = 0.5 | 0.143 ± 0.00198
x2 = 0.6 | 0.152 ± 0.00198
x2 = 0.7 | 0.149 ± 0.00206
x2 = 0.8 | 0.133 ± 0.00263
x2 = 0.9 | 0.102 ± 0.00311

C1CCOCC1 [tetrahydropyran]
Conditions | heat capacity [J/K/m3]
[3] | 1519000 ± 6000

C1CCOCC1 [tetrahydropyran] + CCCCCCCCCC
[1]
Conditions | excess molar enthalpy [kcal/mol]
x1 = 0.182 | 0.0908 ± 0.00136
x1 = 0.333 | 0.143 ± 0.00206
x1 = 0.461 | 0.165 ± 0.0022
x1 = 0.571 | 0.17 ± 0.00217
x1 = 0.666 | 0.16 ± 0.00232
x1 = 0.75 | 0.141 ± 0.00287
x1 = 0.823 | 0.115 ± 0.00382
x1 = 0.889 | 0.0821 ± 0.00526
x1 = 0.947 | 0.0428 ± 0.00645

C1CCOCC1 [tetrahydropyran] + CCCCCCCCO
[2]
Conditions | mass density [kg/m3]
x1 = 0.0533 | 823.35 ± 0.69
x1 = 0.0961 | 824.78 ± 0.69
x1 = 0.198 | 828.58 ± 0.68
x1 = 0.2967 | 832.64 ± 0.68
x1 = 0.4014 | 837.39 ± 0.67
x1 = 0.5 | 842.3 ± 0.66
x1 = 0.599 | 847.86 ± 0.65
x1 = 0.7005 | 854.23 ± 0.64
x1 = 0.7999 | 861.27 ± 0.63
x1 = 0.8989 | 869.3 ± 0.62
x1 = 0.9504 | 873.97 ± 0.61

C1CCOCC1 [tetrahydropyran] + CCCCCCO
Conditions | heat capacity, [4] [J/K/m3] | mass density, [2] [kg/m3]
x1 = 0.0523 | 1899000 ± 8000 | 817.49 ± 0.7
x1 = 0.1033 | 1883000 ± 8000 | 820.05 ± 0.7
x1 = 0.2029 | 1851000 ± 7000 | 825.28 ± 0.69
x1 = 0.3021 | 1818000 ± 7000 | 830.74 ± 0.68
x1 = 0.4033 | 1782000 ± 7000 | 836.58 ± 0.67
x1 = 0.5007 | 1745000 ± 7000 | 842.45 ± 0.66
x1 = 0.6013 | 1705000 ± 7000 | 848.93 ± 0.65
x1 = 0.7015 | 1662000 ± 7000 | 855.69 ± 0.64
x1 = 0.799 | 1616000 ± 6000 | 862.7 ± 0.63
x1 = 0.8994 | 1567000 ± 6000 | 870.44 ± 0.62
x1 = 0.9482 | 1543000 ± 6000 | 874.45 ± 0.61

C1CCOCC1 [tetrahydropyran] + CCCCCO
Conditions | excess molar enthalpy, [1] [kcal/mol] | heat capacity, [4] [J/K/m3] | mass density, [2] [kg/m3]
x1 = 0.0486 | – | 1898000 ± 8000 | 813.55 ± 0.71
x1 = 0.0968 | – | 1881000 ± 8000 | 816.55 ± 0.7
x1 = 0.11 | 0.0784 ± 0.00127 | – | –
x1 = 0.2002 | – | 1846000 ± 7000 | 823.07 ± 0.69
x1 = 0.217 | 0.144 ± 0.00217 | – | –
x1 = 0.2987 | – | 1811000 ± 7000 | 829.33 ± 0.68
x1 = 0.323 | 0.19 ± 0.00263 | – | –
x1 = 0.3966 | – | 1776000 ± 7000 | 835.71 ± 0.67
x1 = 0.426 | 0.219 ± 0.00287 | – | –
x1 = 0.4994 | – | 1738000 ± 7000 | 842.54 ± 0.66
x1 = 0.526 | 0.232 ± 0.00287 | – | –
x1 = 0.5993 | – | 1698000 ± 7000 | 849.33 ± 0.65
x1 = 0.625 | 0.228 ± 0.00311 | – | –
x1 = 0.6972 | – | 1657000 ± 7000 | 856.2 ± 0.64
x1 = 0.722 | 0.206 ± 0.00359 | – | –
x1 = 0.8 | – | 1610000 ± 6000 | 863.59 ± 0.63
x1 = 0.816 | 0.165 ± 0.00526 | – | –
x1 = 0.8983 | – | 1564000 ± 6000 | 870.89 ± 0.62
x1 = 0.909 | 0.0978 ± 0.00669 | – | –
x1 = 0.9495 | – | 1540000 ± 6000 | 874.85 ± 0.61

C1CCOCC1 [tetrahydropyran] + CCCCO
Conditions | heat capacity, [4] [J/K/m3] | mass density, [2] [kg/m3]
x1 = 0.0511 | 1899000 ± 8000 | 809.59 ± 0.56
x1 = 0.0976 | 1882000 ± 8000 | 813.23 ± 0.55
x1 = 0.1996 | 1847000 ± 7000 | 821.04 ± 0.55
x1 = 0.301 | 1811000 ± 7000 | 828.64 ± 0.54
x1 = 0.3987 | 1778000 ± 7000 | 835.87 ± 0.54
x1 = 0.499 | 1739000 ± 7000 | 843.12 ± 0.54
x1 = 0.598 | 1699000 ± 7000 | 850.26 ± 0.55
x1 = 0.6994 | 1655000 ± 7000 | 857.46 ± 0.56
x1 = 0.7998 | 1610000 ± 6000 | 864.53 ± 0.57
x1 = 0.8998 | 1563000 ± 6000 | 871.67 ± 0.58
x1 = 0.9501 | 1541000 ± 6000 | 875.22 ± 0.59

C1CCOCC1 [tetrahydropyran] + CCCO
Conditions | heat capacity, [4] [J/K/m3] | mass density, [2] [kg/m3]
x1 = 0.0996 | 1875000 ± 8000 | 809.78 ± 0.6
x1 = 0.1994 | 1838000 ± 7000 | 819.29 ± 0.59
x1 = 0.2873 | 1807000 ± 7000 | 827.18 ± 0.58
x1 = 0.3993 | 1766000 ± 7000 | 836.57 ± 0.58
x1 = 0.4981 | 1728000 ± 7000 | 844.4 ± 0.58
x1 = 0.6011 | 1687000 ± 7000 | 852.07 ± 0.58
x1 = 0.7007 | 1646000 ± 7000 | 859.15 ± 0.58
x1 = 0.7981 | 1604000 ± 6000 | 865.77 ± 0.59
x1 = 0.9007 | 1560000 ± 6000 | 872.46 ± 0.59
